The results in this text go back to patent US20250101042A1, “KRAS G12D MODULATING COMPOUNDS” (Gilead Sciences, Inc., priority 2023, published 2025).

The target of one experiment is GDP-loaded KRAS G12D (Homo sapiens, UniProt P01116, G12D). Description: KRAS G12D (GDP) Biochemical Assay (TR-FRET probe displacement). It is filed as binding. The note with it: 0.5 nM enzyme, 2 hours at room temperature. The method, then: Example A. KRAS G12D (GDP) Biochemical Assay
Compounds were tested for binding to GDP-loaded KRAS G12D in a 384-well assay format using a TR-FRET probe displacement assay in buffer consisting of 50 mM Hepes (pH 7.4), 150 mM NaCl, 5 mM MgCl2 and 0.005% Tween-20. […] Compounds were serially diluted (1:3) in DMSO. The LabCyte ECHO Acoustic dispenser system was used to pre-spot the assay plates (384-well Non-Binding Surface plates, Corning, Catalog #3824) with 50 nL of compound. The compounds were pre-incubated with 5 μL of 2× final enzyme concentration for 30 minutes before adding 5 μL of 2× final concentration of Eu-streptavidin and TR-FRET probe (10 μL final reaction volume). The plates were incubated at room temperature for 2 hours before measuring TR-FRET ratio on the Envision plate reader. IC50 values were defined as the compound concentration that causes a 50% decrease in TR-FRET ratio and were calculated using a sigmoidal dose-response model to generate curve fits.

A further experiment concerns GP2D (KRAS G12D) cells. Description: 2D Cell Viability Assay (CellTiter-Glo). The format is cell-based. The note with it: 4 days, CellTiter-Glo luminescence. The method, then:
Example B. 2D Cell Viability Assay
Compounds were tested in a 384-well format for their ability to inhibit the viability of GP2D (KRAS G12D) cells in 2D assays. Compounds were serially diluted (1:3) in DMSO. The LabCyte ECHO Acoustic dispenser system was used to pre-spot assay plates with 200 nL of test molecule per well. 1000 cells/well (40 μL volume per well) in RPMI medium with 10% FBS, and Penicillin-Streptomycin-Glutamine were plated in pre-spotted 384-well plates (Greiner, Catalog #781076) on the BioTEK EL406 liquid dispenser with a 5 μL dispensing cassette (BioTek 7170011). The plates were incubated at 37° C., 5% CO2 for 4 days before addition of CellTiter-Glo (CTG) reagent and measurement of luminescence signal. EC50 values were defined as the compound concentration that causes a 50% decrease in luminescence signal and were calculated using a sigmoidal dose-response model to generate curve fits.
Background: In ATP-based viability assays light output follows the ATP content of the culture.

GDP-loaded KRAS G12D, sequence (P01116 1-188 isoform P01116-2 G12D): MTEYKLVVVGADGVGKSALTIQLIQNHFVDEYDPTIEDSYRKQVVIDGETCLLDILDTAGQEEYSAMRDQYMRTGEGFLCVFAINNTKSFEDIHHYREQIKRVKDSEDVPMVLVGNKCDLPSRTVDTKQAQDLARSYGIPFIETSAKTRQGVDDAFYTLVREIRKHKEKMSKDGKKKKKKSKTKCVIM

In general, IC50 refers to the point on the concentration scale where inhibition reaches its midpoint. Lower therefore signals inhibition by little substance. The term EC50 denotes the concentration that produces a half-maximal response. `C#Cc1c(F)ccc2cc(N)nc(-c3c(F)c4c5c(nc(OC[C@@]67CCCN6C[C@H](F)C7)nc5c3F)N3C[C@H]5CC[C@H](N5)[C@H]3CC4)c12` (atropisomer, axis not shown; (aR)) [Example 62, 1-((1S,4R,11S,14aR)-10,12-difluoro-8-(((2R,7aS)-2-fluorotetrahydro-1H-pyrrolizin-7a(5H)-yl)methoxy)-1,2,3,4,5,13,14,14a-octahydro-1,4-epiminoazepino[1′,2′:1,7]azepino[2,3,4-de]quinazolin-11-yl)-8-ethynyl-7-fluoroisoquinolin-3-amine] showed a 50% inhibitory concentration (IC50) on GDP-loaded KRAS G12D of 0.03 nM. Moreover, in the experiment on GP2D (KRAS G12D) cells (GP2d, 96 h), the EC50 worked out at 2.5 nM.
Regarding `C[C@H]1Cc2c(F)c(-c3ccc(F)c4sc(N)c(C#N)c34)c(F)c3nc(OC[C@@]45CCCN4C[C@H](F)C5)nc(c23)N2C[C@H]3CC[C@H](N3)[C@H]12` (atropisomer, axis not shown; (aS)) [Example 34, (S)-2-amino-4-((1S,4R,14S,14aS)-10,12-difluoro-8-(((2R,7aS)-2-fluorotetrahydro-1H-pyrrolizin-7a(5H)-yl)methoxy)-14-methyl-1,2,3,4,5,13,14,14a-octahydro-1,4-epiminoazepino[1′,2′:1,7]azepino[2,3,4-de]quinazolin-11-yl)-7-fluorobenzo[b]thiophene-3-carbonitrile], the half-maximal inhibitory concentration (IC50) on GDP-loaded KRAS G12D was determined as 0.08 nM. The EC50 in the experiment on GP2D (KRAS G12D) cells (GP2d, 96 h) amounted to 0.5 nM.
The molecule `C#Cc1c(F)ccc2cc(N)nc(-c3c(F)c4c5c(nc(OC[C@@]67CCCN6C[C@H](F)C7)nc5c3F)N3C[C@H]5CC[C@H](N5)[C@@H]3[C@@H](C)C4)c12` (atropisomer, axis not shown; (aS)) [Example 45, 1-((1S,4R,11S,14S,14aS)-10,12-difluoro-8-(((2R,7aS)-2-fluorotetrahydro-1H-pyrrolizin-7a(5H)-yl)methoxy)-14-methyl-1,2,3,4,5,13,14,14a-octahydro-1,4-epiminoazepino[1′,2′:1,7]azepino[2,3,4-de]quinazolin-11-yl)-8-ethynyl-7-fluoroisoquinolin-3-amine] yielded an IC50 at GDP-loaded KRAS G12D of 0.04 nM. In the experiment with GP2D (KRAS G12D) cells (GP2d, 96 h), this molecule returned an EC50 of 2.2 nM.
In the experiment on GP2D (KRAS G12D) cells (GP2d, 96 h), `C#Cc1c(F)ccc2cc(N)nc(-c3c(Cl)c4c5c(nc(OC[C@@]67CCCN6C[C@H](F)C7)nc5c3F)N3C[C@H]5CC[C@H](N5)[C@@H]3[C@@H](C)C4)c12` (atropisomer, axis not shown; (aS)) [Example 48, 1-((1S,4R,11R,14S,14aS)-12-chloro-10-fluoro-8-(((2R,7aS)-2-fluorotetrahydro-1H-pyrrolizin-7a(5H)-yl)methoxy)-14-methyl-1,2,3,4,5,13,14,14a-octahydro-1,4-epiminoazepino[1′,2′:1,7]azepino[2,3,4-de]quinazolin-11-yl)-8-ethynyl-7-fluoroisoquinolin-3-amine] had an EC50 of 8.1 nM.
On GDP-loaded KRAS G12D, `C[C@H]1Cc2c(Cl)c(-c3ccc(F)c4sc(N)c(C#N)c34)c(F)c3nc(OC[C@@]45CCCN4C[C@H](F)C5)nc(c23)N2C[C@H]3CC[C@H](N3)[C@H]12` (atropisomer, axis not shown; (aS)) [Example 52, 2-amino-4-((1S,4R,11R,14S,14aS)-12-chloro-10-fluoro-8-(((2R,7aS)-2-fluorotetrahydro-1H-pyrrolizin-7a(5H)-yl)methoxy)-14-methyl-1,2,3,4,5,13,14,14a-octahydro-1,4-epiminoazepino[1′,2′:1,7]azepino[2,3,4-de]quinazolin-11-yl)-7-fluorobenzo[b]thiophene-3-carbonitrile] had an IC50 of 0.03 nM.
At GDP-loaded KRAS G12D, `C[C@H]1Cc2c(Cl)c(-c3ncc(F)c4sc(N)c(C#N)c34)c(F)c3nc(OC[C@@]45CCCN4C[C@H](F)C5)nc(c23)N2C[C@H]3CC[C@H](N3)[C@H]12` (atropisomer, axis not shown; (aS)) [Example 56, 2-amino-4-((1S,4R,11S,14S,14aS)-12-chloro-10-fluoro-8-(((2R,7aS)-2-fluorotetrahydro-1H-pyrrolizin-7a(5H)-yl)methoxy)-14-methyl-1,2,3,4,5,13,14,14a-octahydro-1,4-epiminoazepino[1′,2′:1,7]azepino[2,3,4-de]quinazolin-11-yl)-7-fluorothieno[3,2-c]pyridine-3-carbonitrile] yielded an IC50 of 0.11 nM. Further, the EC50 with GP2D (KRAS G12D) cells (GP2d, 96 h) worked out at 2 nM.
In the case of `C[C@H]1Cc2c(Cl)c(-c3cccc4sc(N)c(C#N)c34)c(F)c3nc(OC[C@@]45CCCN4C[C@H](F)C5)nc(c23)N2C[C@H]3CC[C@H](N3)[C@H]12` (atropisomer, axis not shown; (aS)) [Example 57, 2-amino-4-((1S,4R,11R,14S,14aS)-12-chloro-10-fluoro-8-(((2R,7aS)-2-fluorotetrahydro-1H-pyrrolizin-7a(5H)-yl)methoxy)-14-methyl-1,2,3,4,5,13,14,14a-octahydro-1,4-epiminoazepino[1′,2′:1,7]azepino[2,3,4-de]quinazolin-11-yl)benzo[b]thiophene-3-carbonitrile], the IC50 on GDP-loaded KRAS G12D is 0.06 nM. In the experiment on GP2D (KRAS G12D) cells (GP2d, 96 h), this molecule had an EC50 of 0.94 nM.
The corresponding values for `Cc1cc(N)nc(-c2c(Cl)c3c4c(nc(OC[C@@]56CCCN5C[C@H](F)C6)nc4c2F)N2C[C@H]4CC[C@H](N4)[C@H]2CCC3)c1C(F)(F)F` (single isomer, unassigned) [Example 2] are 8.8 nM and 65 nM.
The molecule `Cc1cc(N)nc(-c2c(Cl)c3c4c(nc(OC[C@@]56CCCN5C[C@H](F)C6)nc4c2F)N2C[C@H]4CC[C@H](N4)[C@H]2CCC3)c1C(F)(F)F` (single isomer, unassigned) [Example 3] had a concentration for half-maximal inhibition (IC50) on GDP-loaded KRAS G12D of 87 nM. The same molecule registered an EC50 in the experiment with GP2D (KRAS G12D) cells greater than 100 nM.
For `Cc1cc(N)nc(-c2c(Cl)c3c4c(nc(OC[C@@]56CCCN5C[C@H](F)C6)nc4c2F)N2C[C@H]4CC[C@H](N4)[C@H]2CC3)c1C(F)(F)F` (single isomer, unassigned) [Example 5], the IC50 on GDP-loaded KRAS G12D was determined as 1.1 nM. The same molecule displayed an EC50 in the experiment on GP2D (KRAS G12D) cells of 14 nM.
Take `Cc1cc(N)nc(-c2c(Cl)c3c4c(nc(OC[C@@]56CCCN5C[C@H](F)C6)nc4c2F)N2C[C@H]4CC[C@H](N4)[C@H]2CC3)c1C(F)(F)F` (single isomer, unassigned) [Example 6]: the IC50 at GDP-loaded KRAS G12D came out at 0.05 nM. Also, a half-maximal effect in the experiment on GP2D (KRAS G12D) cells (EC50) was put at 1.2 nM.
On the same counts, the results for `Cc1cc(N)nc(-c2c(F)c3c4c(nc(OC[C@@]56CCCN5C[C@H](F)C6)nc4c2F)N2C[C@H]4CC[C@H](N4)[C@H]2CC3)c1C(F)(F)F` (single isomer, unassigned) [Example 21] are 2 nM and 12 nM.
On the same counts, the results for `Cc1cc(N)nc(-c2c(F)c3c4c(nc(OC[C@@]56CCCN5C[C@H](F)C6)nc4c2F)N2C[C@H]4CC[C@H](N4)[C@H]2CC3)c1C(F)(F)F` (single isomer, unassigned) [Example 22] are 0.08 nM and 1.6 nM.
On to `C[C@H]1Cc2c(F)c(-c3ncc(F)c4sc(N)c(C#N)c34)c(F)c3nc(OC[C@@]45CCCN4C[C@H](F)C5)nc(c23)N2C[C@H]3CC[C@H](N3)[C@H]12` (single isomer, unassigned) [Example 50], for which, on GDP-loaded KRAS G12D, the IC50 amounted to 0.12 nM. This molecule returned an EC50 with GP2D (KRAS G12D) cells (GP2d, 96 h) of 2.6 nM.
Regarding `C[C@H]1Cc2c(F)c(-c3ncc(F)c4sc(N)c(C#N)c34)c(F)c3nc(OC[C@@]45CCCN4C[C@H](F)C5)nc(c23)N2C[C@H]3CC[C@H](N3)[C@H]12` (single isomer, unassigned) [Example 51], the IC50 on GDP-loaded KRAS G12D amounted to 0.8 nM. In the experiment with GP2D (KRAS G12D) cells, the concentration giving a half-maximal response (EC50) worked out at 3.4 nM.
